A word on the solubility: it is the dissolved amount per volume that the medium holds. High values mean a readily soluble substance, low ones a poorly soluble substance.

Where only a bound is given, the exact number is not on record here.

Results on two compounds are retold here after patent US20030175314A1, “Pharmaceutical composition for dermal application” (priority 2001, published 2003).

One data set can be described thus: solubility. Type of data set: physicochemical. The procedure: Cipamfylline has a pronounced inner crystal bonding resulting in a high melting point (about 310-312° C.) and some degree of hydrophobicity. […] On the other hand, effective delivery of the active component into the epidermis where it can exert its effect requires that the compound be present in a dissolved state in said composition.

The format of data set [1] is physicochemical. The source says: More specifically, the solvent comprises a non-toxic glycol or glycol ether selected from the group consisting of propylene glycol, butylene glycol, diethylene glycol and diethylene glycol ether. […] The advantageous dissolution properties of propylene glycol may be explained by the solubility properties of this particular solvent, as determined by the Hildebrand solubility coefficient (J H Hildebrand and R L Scott, The Solubility of Non-Electrolytes, Reinhold, N.Y., 1949). […] Thus propylene glycol has a Hildebrand coefficient within ±2 units of that of cipamfylline which makes it an effective solvent for this active component.

The subject of a further data set is PDE4. Briefly: in vitro PDE4 inhibition. As to conditions: in vitro studies. The class given is biochemical. From the text: (§1) The compound of formula I, 1,3-dicyclopropylmethyl-8-aminoxanthine, is also known by the proposed generic name cipamfylline. The compound and a method of its preparation is disclosed in U.S. Pat. No. 5,734,051 which is hereby incorporated by reference in its entirety.

The next data set has as its system lymphocyte proliferation. In words: in vitro lymphocyte proliferation. The class given is cell-based. As to conditions: in vitro studies.
Source text: as §1

A further data set deals with atopic dermatitis. In words: phase II left/right study, cipamfylline cream vs vehicle or Locoid cream (Example 2). Type of data set: in vivo, Humans. To be noted: for decrease of total severity score: 1 g twice daily, two weeks. Here is the method:
In a phase II, multi-centre, randomised, double-blind left/right study comparing cipamfylline cream 1.5 mg/g (formulation B) with the reference vehicle without cipamfylline and with Locoid cream 0.1% (hydrocortisone-17-butyrate 0.1% cream) in patients suffering from atopic dermatitis, patients were randomised to either group (1) cipamfylline cream 1.5 mg/g in reference vehicle vs vehicle or (2) cipamfylline cream 1.5 mg/g in reference vehicle vs Locoid cream. One g of each cream were applied twice daily for two weeks. A total number of 108 patients with a clinical diagnosis of atopic dermatitis, with symmetrical lesions of atopic dermatitis on their arms with a minimum score of 6 in the total severity score (ratings of erythema, oedema/papulation, oozing/crusting, excoriations and lichenification on a scale from 0-3) were included. Excluded were patients with suspected infection in the treatment areas, patients who were receiving other treatment for atopic dermatitis or who were pregnant or planning to become pregnant in the course of the study.

Data set [2] deals with secretion of proinflammatory cytokines such as tumour necrosis factor α (TNF-α), IL-10, IL-12 and IFN-γ. In words: in vitro secretion of proinflammatory cytokines. As to conditions: in vitro studies. The class given is cell-based.
Source text: as §1

The subject of the next data set is skin. In words: skin irritation by the solvent. The class given is in vivo. To be noted: propylene glycol in itself. From the text:
Apart from being a solvent for cipamfylline, propylene glycol as a secondary penetration enhancer, i.e. a substance which is capable of penetrating the stratum corneum and “draw” low-molecular components such as therapeutically active components in the vehicle into the epidermis. […] For this reason, propylene glycol has previously been thought to be unsuitable for inclusion as a solvent in compositions intended for the treatment of atopic dermatitis. However, the present vehicle has been specifically designed to exclude all excipients which are capable of penetrating into the epidermis (or being “drawn” into the epidermis by the solvent) and which are not essential for formulation purposes, resulting in a composition which, according to the clinical tests described in Example 3 herein, gives rise to fewer irritative reactions in skin on which the composition is applied compared to a conventional reference formulation. This, of course, is particularly important for dermal formulations intended for application on inflamed, and therefore highly irritated skin so as to avoid a painful burning sensation at the site of application and more long-term irritation such as pain or itching.

Regarding `Nc1nc2c([nH]1)c(=O)n(CC1CC1)c(=O)n2CC1CC1` [cipamfylline, 1,3-dicyclopropylmethyl-8-aminoxanthine], the solubility in the data set “solubility” (water) was under 50 µg/mL. The “solubility with water as co-solvent” value in the data set “solubility” (water present as a co-solvent in an amount of about 25% or more) is on record as “greatly decreased”. Moreover, in data set [1], the “Hildebrand coefficient (solubility parameter δ)” value is “about 13.4 (cal/cm^3)^1/2”. In addition, the “inhibition of PDE4” value in the data set on PDE4 was “potent and selective inhibitor”. The “effect on lymphocyte proliferation” value in the data set with lymphocyte proliferation is listed as “no effect”. Also, the “decrease of total severity score” value in the data set on atopic dermatitis (group (1) cipamfylline cream 1.5 mg/g (formulation B) vs vehicle, end of study) is reported as 38%; with atopic dermatitis (group (2) cipamfylline cream 1.5 mg/g (formulation B) vs Locoid cream 0.1%, end of treatment), 30%. Besides, in the data set on atopic dermatitis (treated side, cipamfylline cream 1.5 mg/g vs vehicle), the “patients with local adverse reactions (burning, stinging, pruritus)” value was 15 % of the patients. Further, in data set [2], the “inhibition of the secretion of proinflammatory cytokines (TNF-α, IL-10, IL-12, IFN-γ)” value is recorded as “inhibitor”.
Consider `CC(O)CO` (centres unmarked) [propylene glycol], for which the “Hildebrand coefficient (solubility parameter δ)” value in data set [1] was “about 14.8 (cal/cm^3)^1/2”. In addition, the skin irritation entry in the data set with skin is given as “does not in itself give rise to any significant skin irritation”.
